In the NIST ThermoML archive (doi:10.1021/je500114m) one finds surface tension liquid-gas data, which are given here for eight molecules.

The series in a line: mn = molality of the nth substance listed, in mol/kg. The settings on record: 298.15 K, Ring tensiometer.

The surface tension liquid-gas is the work needed to enlarge the surface of a liquid by unit area.

The structures appear in SMILES notation. Numbers after ± are expanded uncertainties.

With `C=CC(C)(C)O` [2-methyl-3-buten-2-ol] + O, the surface tension liquid-gas by setting is: (m1 = 0.001) 70.6 ± 0.9 mN/m; (m1 = 0.003) 69.7 ± 0.9 mN/m; (m1 = 0.0052) 69.5 ± 0.9 mN/m; (m1 = 0.0088) 67.7 ± 0.9 mN/m.

For the molecule `CC/C=C\CCO` [(Z)-3-hexen-1-ol] + O, the surface tension liquid-gas was 69.5 ± 0.9 mN/m (m1 = 0.001), 65.2 ± 1.4 mN/m (m1 = 0.003), 63.5 ± 0.8 mN/m (m1 = 0.005) and 61.5 ± 0.8 mN/m (m1 = 0.006).

On to `CC/C=C\CCOC(C)=O` [(Z)-3-hexenyl acetate] + O, for which the surface tension liquid-gas (m1 = 0.0006) was found to be 66.8 ± 0.9 mN/m, the surface tension liquid-gas (m1 = 0.0015) was determined as 62.3 ± 0.8 mN/m and the surface tension liquid-gas (m1 = 0.0019) worked out at 58.7 ± 1.1 mN/m.

Turning to `COC(=O)c1ccccc1O` [methyl 2-hydroxybenzoate] + O, the surface tension liquid-gas stood at 70.8 ± 0.9 mN/m (m1 = 0.001), 70.1 ± 0.9 mN/m (m1 = 0.0021), 68.9 ± 0.9 mN/m (m1 = 0.0031) and 65.2 ± 1.1 mN/m (m1 = 0.0053).

`O` [water] + C=CC(C)(C)O: the surface tension liquid-gas (m2 = 0) was determined as 70.8 ± 1 mN/m.

On to `O` [water] + CC/C=C\CCO, for which the surface tension liquid-gas (m2 = 0) came to 71.5 ± 0.9 mN/m.

As to `O` [water] + CC/C=C\CCOC(C)=O, the surface tension liquid-gas (m2 = 0) worked out at 70.2 ± 1 mN/m.

Consider `O` [water] + COC(=O)c1ccccc1O, for which the surface tension liquid-gas (m2 = 0) is on record as 71 ± 0.9 mN/m.
